pEC50, pIC50: −log10 of the molar value. Active and inactive are the calls of the source.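 Rule for the calls: active = compounds giving half or more protection of infected cells from virus-caused growth loss, again on retest; inactive = the rest.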 Where a SMILES comes first, the peptide text is derived from it. The star is where a group is joined. Cbz = O=C(OCc1ccccc1)*

Results on 75 compounds are retold here after PubChem BioAssay AID179 (DTP/NCI, 2004).

The assay relates to CEM cells HIV-1 protection, formazan growth assay. The assay can be described thus: NCI AIDS Antiviral Assay. Particulars: for pIC50: measured here: growth of uninfected CEM cells. The gist of the method:
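Screen of anti-HIV-1 activity in human CEM cells using a formazan-based growth measurement at five drug concentrations. Hits with 50% or greater protection were repeated, and confirmation required reproducible complete protection.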

The term pEC50 denotes −log10 of the EC50, conventionally taken in molar units. The pIC50 is the negative decadic logarithm of the IC50, by convention in mol/L. A higher pIC50 goes with a small IC50. For `CCC(C)C(NC(=O)C1CCCN1C(=O)OCc1ccccc1)C(=O)O` (stereo not drawn) (Cbz-Pro-Ile-OH; configuration not given here), the pEC50 was less than 3.16 and the pIC50 was less than 3.16. As to `CC(C)(C)c1ccccc1N1C(=O)c2ccc3c4c(ccc(c24)C1=O)N(c1ccccc1C(C)(C)C)C3=O`, the pEC50 is less than 3.70 and the pIC50 is less than 3.70. Turning to `COC1N(C2C=CC(CO)O2)C(=O)NC(=O)C1(C)I` (stereo unspecified), the pEC50 was 6.56 and the negative logarithm of the IC50 (pIC50) is 5.11. The matching figures for `Cc1ccc(S(=O)(=O)N2CCSCCSCCSCCN(S(=O)(=O)c3ccc(C)cc3)CC2)cc1`: less than 4.90 and less than 4.90. In the case of `CCNc1ccccc1S(=O)(=O)c1ccccc1[N+](=O)[O-]`, the pEC50 is less than 6.13. On to `ON(CCc1ccccn1)CCc1ccccn1`, for which the pEC50 is less than 3.70 and the negative logarithm of the IC50 (pIC50) is less than 3.70. `NCCCN(CCCCN(CCCN)CCCc1ccccc1)CCCc1ccccc1`: the result was inactive. As for `CN(C)CCNS(=O)(=O)c1ccc(N)cc1`, the pEC50 is less than 3.70 and the pIC50 is less than 3.70.

In the case of `COc1ccc(/C=C2/C(=O)N(C(=O)c3ccccc3O)N=C2C)cc1OC`, the pEC50 is less than 4.15 and the pIC50 was 6.84. The matching figures for `NC(=O)CNCCS(=O)(=O)O`: less than 3.70 and less than 3.70. The matching figures for `c1ccc(SC23C4C5C6C4C2C6C53)nc1` (stereo unspecified): less than 3.82 and 4.11. The matching figures for `Nc1ccc2c(c1)C(=O)N(O)C2=O`: less than 2.85 and 3.12. On to `CCCCCCCC(=O)c1ccc(O)c(C(=O)Nc2ccc(C(F)(F)F)cc2)c1`, for which the pEC50 is less than 4.48 and the pIC50 was 5.30. The matching figures for `CC(C)CCSSCCC(C)C`: less than 3.70 and less than 3.70.

For the compound `CCc1cc(CCC(=O)Nc2ccccc2[N+](=O)[O-])[nH]c(=S)n1`, the pEC50 is less than 3.12 and the pIC50 is less than 3.12. `CCOP(=O)(C/C=C\Cn1cnc(C(N)=O)c1N)OCC`: the pEC50 is less than 3.70 and the negative-log IC50 (pIC50) is less than 3.70. For `COc1ccc(S(=O)(=O)N/N=C(\C)CN2C(=O)c3ccccc3C2=O)cc1`, the pEC50 is less than 3.89 and the negative logarithm of the IC50 (pIC50) is less than 3.89.

`O=C1NS(=O)(=O)c2cc(Cl)ccc21`: the pEC50 is less than 2.94 and the pIC50 was less than 2.94. Take `O=c1ccc2c(-c3ccccc3O)c3ccc(O)cc3oc-2c1`: the negative-log EC50 (pEC50) is less than 4.02 and the pIC50 was 4.76. The matching figures for `CNC(=O)NCCCCC(NC(=O)OCc1ccccc1)C(=O)OCc1ccccc1` (stereo unspecified): less than 4.08 and 4.22. As to `OC1CC(c2ccccc2)Oc2ccccc21` (stereo unspecified), the result was inactive.

`C[N+]12CCCCC1C(CN1C(=O)Cc3c4ccccc4c(c4ccccc34)CC1=O)CCC2` (stereo unspecified): the pEC50 is less than 3.70 and the pIC50 is less than 3.70. With `COc1ccc2c(c1)C1C(CO2)C(c2ccccc2)=NN1c1ccccc1` (stereo unspecified), the pEC50 is less than 4.69 and the negative-log IC50 (pIC50) was less than 4.69. Regarding `CSc1ccc(NC(=S)NN(C)C)cc1`, the pEC50 was less than 3.70 and the negative logarithm of the IC50 (pIC50) was 4.03.

As for `COc1ccc(N2C(=O)C3c4[nH]c5ccccc5c4C4CCCCCCCCCCC4C3C2=O)cc1` (stereo unspecified), the pEC50 is less than 5.25 and the negative-log IC50 (pIC50) is less than 5.25. Take `CC(C)N1C(C)[C@@H](c2ccccc2)O[P@]1(=O)CC1=CCCCC1` (stereo partly specified): the result was inactive. As for `Cc1ccc(N=c2oc3c(ccc4ccccc43)nc2Nc2ccc(C)cc2)cc1`, the pEC50 is less than 3.70 and the pIC50 was less than 3.70.

Take `COc1ccc(/C=C2\CN(C)Cc3c2[nH]c(=O)c(C#N)c3-c2ccc(OC)cc2)cc1`: the pEC50 is less than 3.70 and the pIC50 is 4.01.

`CC(=O)NC1(C)CC[C@H]2CC1C(C)=NC2(C)C` (stereo partly specified): the pEC50 was less than 2.98 and the pIC50 was less than 2.98. Regarding `COc1cccc(C2SCC(=O)N2c2ccc(-n3c(-c4ccccc4)nc4ccccc4c3=O)cc2)c1OC` (stereo unspecified), the pEC50 is less than 3.70 and the pIC50 is less than 3.70. Take `COc1ccc2c(c1)CCc1c-2n(CCN2CCCCC2)c2ccc(OC)cc12`: the pEC50 is less than 4.00 and the negative-log IC50 (pIC50) is less than 4.00. As to `O=C1c2ccccc2C(c2ccccc2)(N2CCCCC2)N1c1ccccc1` (stereo unspecified), the pEC50 was less than 4.76 and the pIC50 is less than 4.76. As to `CCN(CC)c1c(-c2c(N(CC)CC)c(OC(C)=O)c3sccn3c2=O)c(=O)n2ccsc2c1OC(C)=O`, the pEC50 was less than 3.70 and the negative-log IC50 (pIC50) was less than 3.70. As for `C/C(CC(=O)Nc1ccccc1C)=N/NS(=O)(=O)c1ccc(C)cc1`, the pEC50 is less than 3.44 and the negative-log IC50 (pIC50) was less than 3.44. Turning to `Cc1ccccc1N=C1SCC(=O)N1c1ccccc1C`, the negative-log EC50 (pEC50) is 3.85 and the pIC50 is 3.72. The matching figures for `Cc1nnnn1[C@H]1C(C#N)CC2[C@@H]3CCC4=Cc5nnnn5CC[C@]4(C)C3CC[C@@]21C` (stereo partly specified): less than 4.07 and less than 4.07. The matching figures for `O/N=C1/C(=C/c2ccc(F)cc2)CCCC1C(NO)c1ccc(F)cc1` (stereo unspecified): less than 5.54 and less than 5.54. The matching figures for `O=c1n(-c2ccccc2)c(=O)n2n1Cc1cc3ccccc3cc1-2`: less than 4.10 and less than 4.10. In the case of `Cc1ccc(S(=O)(=O)N2c3ccccc3[C@H]3CCc4c([nH]c5ccccc45)[C@H]32)cc1`, the pEC50 is 4.45 and the pIC50 was less than 4.00. The matching figures for `C1CN(/N=N/N2CCOCC2)CCO1`: less than 3.70 and less than 3.70.

With `CCN(CCCl)CCCCNc1c2ccccc2nc2ccc(OC)cc12`, the result was inactive. As for `CC(=O)Oc1ccc2c(c1)Cc1cc(N=[N+]([O-])c3ccc4c(c3)Cc3cc(OC(C)=O)ccc3-4)ccc1-2`, the pEC50 was less than 3.70 and the negative logarithm of the IC50 (pIC50) was less than 3.70.

Regarding `COC(=O)CCC1CCc2c(OC)ccc(O)c2C1=O` (stereo unspecified), the result was inactive. Consider `CCCCNC(=O)/N=C/c1c(O)c2ccccc2oc1=O`, for which the pEC50 is less than 4.04 and the pIC50 is 4.23. The matching figures for `CCOP(=O)(OCC)c1ccc[nH]1`: less than 3.70 and less than 3.70. The matching figures for `CN1C/C(=C\c2cccs2)C2=NN(C)C(c3cccs3)C2C1` (stereo unspecified): less than 3.70 and less than 3.70.

On to `N=C(N)SCCc1cn2ccccc2n1`, for which the pEC50 is less than 3.07 and the negative logarithm of the IC50 (pIC50) was 4.37. The matching figures for `COc1ccc(NC(=O)C(=O)Cc2nc3ccc(C(=O)c4ccccc4)cc3[nH]c2=O)c([N+](=O)[O-])c1`: less than 3.71 and 4.29. The matching figures for `Clc1ccc(NC2=NCCN=C(Nc3ccc(Cl)c(Cl)c3)SS2)cc1Cl`: less than 4.95 and less than 4.95. The matching figures for `Cc1c(Cl)c(=O)oc2cc(OCC(=O)c3ccccc3)ccc12`: less than 4.00 and less than 4.00.

For `NS(=O)(=O)c1ccc(NNC(=O)c2cccc3c(=O)c4ccccc4[nH]c23)cc1`, the pEC50 was less than 3.70 and the pIC50 was 4.23. The matching figures for `CN(C)c1ccc(/C=C/C(=O)O)cc1`: less than 2.94 and less than 2.94. The matching figures for `CC(=N)C(C#N)C(=S)S` (stereo unspecified): less than 3.27 and 4.56. The matching figures for `CCOC(=O)c1c(N2CCCC2)nsc1Nc1ccccc1`: less than 3.70 and 3.84. With `CNCCCNCCCSP(=O)(O)O`, the pEC50 was less than 3.71 and the pIC50 was 3.72. On to `Cc1c(C#N)c(N)[nH]c(=S)c1C#N`, for which the pEC50 was less than 3.70 and the pIC50 is less than 3.70. On to `CCN(CC)c1ccc2cc(C(=O)Nc3ccccc3)c(=N)oc2c1`, for which the pEC50 was less than 4.00 and the negative logarithm of the IC50 (pIC50) was less than 4.00. On to `C/C(=N/NC(=S)N1CCN(C(=S)N/N=C(/C)c2ccccn2)CC1)c1ccccn1`, for which the pEC50 is less than 3.70 and the pIC50 is 5.40. The matching figures for `COc1c2c(cc3oc(C)c(C)c(=O)c13)OC(C)(C)C=C2`: less than 3.70 and 4.09.

Take `CC1(C)CC(/C=C2/OC(=O)c3ccccc32)=C(C#N)C(=O)O1`: the pEC50 was less than 4.47 and the pIC50 was less than 4.47.

As for `CN(C)C(=O)NC1(N(C)C)CC1`, the pEC50 was less than 3.70 and the negative-log IC50 (pIC50) was less than 3.70. Regarding `COc1ccc(/C=C/C(=O)/C=C/c2ccc(OC)cc2OC)c(OC)c1`, the pEC50 was less than 3.70 and the negative-log IC50 (pIC50) is 5.41.

`N#Cc1c(-c2ccc(Cl)cc2)c2c(n(C3OC(CO)C(O)C(O)C3O)c1=S)CCCC2` (stereo unspecified): the pEC50 was less than 3.70 and the pIC50 was 4.16.

Take `C[Si](C)(/C(=C/COCc1ccccc1)CCOC1CCCCO1)c1ccccc1` (stereo unspecified): the pEC50 was less than 5.04 and the pIC50 is less than 5.04. For `O=C1C(Cl)=C(Cl)C(=O)N1c1ccc(Cl)c(Cl)c1Cl`, the outcome was inactive. With `CCC(=O)NC1=CC(=O)C(=O)c2cccnc21`, the outcome was inactive.

As for `Cc1cc(C)nc(NS(=O)(=O)c2ccc(NC(=O)c3cccc4c(Nc5ccc(S(N)(=O)=O)cc5)c5ccccc5nc34)cc2)n1`, the pEC50 was less than 4.26 and the pIC50 is 4.66. The matching figures for `OC12C3C4CC5C(C4[C@@H]1Br)C2[C@@](O)(c1c(F)c(F)c(F)c(F)c1F)C53` (stereo partly specified): less than 3.70 and 4.16. The matching figures for `CCOC(=O)N1CC(C)=C(C)CN1C(=O)Nc1ccc(Cl)c(Cl)c1`: less than 3.70 and 4.09. In the case of `O=C(O)C[C@H]1CCCCC12CCOC2=O` (stereo partly specified), the outcome was inactive. For the compound `S=C(N1CC1)N1CC1`, the pEC50 is less than 3.70 and the pIC50 is 4.37. The matching figures for `CN(/N=C/c1ccccn1)C1=NCCN1`: less than 3.70 and less than 3.70. In the case of `O=C1C(Cl)C(c2cc(Br)cc(Br)c2O)N1n1cnc2ccccc2c1=O` (stereo unspecified), the pEC50 was less than 4.98 and the pIC50 was less than 4.98. As for `N#C/C(=C\c1cccc(OCc2ccccc2)c1)c1ccc([N+](=O)[O-])cc1`, the pEC50 is less than 3.70 and the negative logarithm of the IC50 (pIC50) is 3.82. Regarding `CCCC#CC(O)(C(=O)OC1CCN(C)CC1)C1CCCCC1` (stereo unspecified), the pEC50 was less than 3.70 and the negative logarithm of the IC50 (pIC50) is less than 3.70.
